Data taken from patent US9327023B2, “HER2 targeting agent treatment in non-HER2-amplified cancers having HER2 expressing cancer stem cells” (The Regents of the University of Michigan, priority 2011, dated 2016).
“Also recorded” adds a separate entry of the source.

Assays:
[1] = tested on: HER2 amplified BT474 tumor xenografts; assay: BT474 xenograft in fat pad, early and late treatment; format: in vivo, NOD/SCID mice; settings: for growth of established BT474 tumors: late treatment, trastuzumab 4 mg/kg IP twice a week, docetaxel 10 mg/kg IP once a week
Procedure: (§1) Five-week old NOD/SCID mice from breeding colony, University of Michigan, Harland and Jackson Laboratory were used throughout the experiments. All experiments involving live mice were conducted in accordance with standard operating procedures approved by University Committee on the Use and Care of Animals at the University of Michigan (ULAM). An estrogen pellet was subcutaneously implanted in each mouse with the fat pad injection of MCF7 or ZR75-1 cells. Mice were sacrificed when tumor reached 1-1.2 CM.
(§2) A xenograft model was used to simulate clinical disease in adjuvant (early treatment) and advanced (late treatment) setting. 5 mice per treatment group were used. For adjuvant setting, 50,000 cells of BT474, ZR75-1 and MCF7 were injected into fat pads and began treatment immediately after inoculation. To simulate advanced disease, 1 million cells of BT474, ZR75-1 and MCF7 were inoculated into fat pads and tumors allowed to reach a size of approximately 0.4 cm. Then, treatment described below was initiated and continued along with assessment of tumor growth for 6-week period. Animals were sacrificed right after completion of 6-week treatment and cancer stem cells were analyzed by Aldefluor assay as described previously.
(§3) NOD/SCID mice implanted with luciferase-labeled cells received 6-week of treatment in both advanced and adjuvant setting.
(§4) Fat pad tumor diameter was measured by caliper weekly. Tumor volumes were calculated using the formula: volume=width^2×length/2. Luciferase-labeled tumor growth was monitored at least every 2 weeks using in vivo imaging system (ISVS, Caliper Life Science). Mice were injected with luciferin (Caliper), anesthetized and imaged according to manufacturer's protocols. For photon flux counting, a charge-coupled device camera system (Xenogen) with a nose-cone isofluorane delivery system and heated stage for maintaining body temperature was used. Results were analyzed after 10 minutes of exposure using the Living Image software provided with the Xenogen imaging system.

[2] = tested on: SUM159-HER2+PTEN- xenografts; assay: SUM159-HER2+PTEN- trastuzumab-resistant xenografts; settings: for serum IL6 or IL8 levels: human specific ELISA; for percent of Aldefluor-positive cells in tumors: mouse, in vivo; for body weight: tumor-bearing mice, docetaxel 10 mg/kg once a week; for tumor growth: 8 weeks, perifosine 20 mg/kg twice a week, anti-IL6R 10 mg/kg once a week; for serum human IL6 and IL8 in control and docetaxel-treated mice higher than in treated mice: ELISA
[3] = tested on: luminal ZR75-1 tumor xenografts; assay: ZR75-1 xenograft in fat pad, early and late treatment; format: in vivo, NOD/SCID mice; settings: for growth of established ZR75-1 tumors: late treatment, trastuzumab 4 mg/kg IP twice a week, docetaxel 10 mg/kg IP once a week
Procedure: as §1, §2, §3, §4

[4] = tested on: HER2 expression in MCF7 cells; assay: co-culture of MCF7 cells with human osteocytes, HER2 expression by flow cytometry; format: cell-based; settings: MCF7 co-cultured with human osteocytes
Procedure: Preparation of cells for FACS analysis and sorting was described as followings. Cells were collected and rinsed twice in 1×PBS containing 2% FBS and a fraction of cells were added with human immunoglobulin to identify non-specific binding and use these cells as a gate for negative control. Cells were incubated with appropriate antibody dilution as manufacture's guidelines. The antibody included anti-HER2/neu APC (Biosciences, Cat#340554), anti-HER2/neu PE (Biosciences, Cat#340552).
To simulate the bone microenvironment in vitro, co-culture experiments were performed utilizing MCF7, DsRed labeled with osteocytes generated from human bone mesenchymal stem cells. […] A number of biological effects of the bone microenvironment and mediated by RANK-ligand.

IL6, IL8, and CCL5 = assay: cytokine secretion of Sum159-HER2+PTEN- cells, ELISA; format: cell-based, human; settings: for secretion of all three cytokines (IL6, IL8, CCL5) / reduced the levels of these cytokines: Sum159-HER2+PTEN- cells, 1 mM Stat3 Inhibitor VII; for secretion of all three cytokines (IL6, IL8, CCL5): 5 mM Bay11-7082, 5 mM perfosine; for reduced the levels of these cytokines: 5 mM perfosine
Procedure: The NF-kB transcription factor is involved in the transcription of a number of cytokine genes including IL6, IL8, and CCL5 (Yu et al., 2010; herein incorporated by reference in its entirety). Furthermore, IL6-activated NF-kB signaling is mediated by Stat3 and Akt signaling pathways (Iliopoulos et al., 2009; herein incorporated by reference in its entirety). […] The effect of recombinant cytokines or cytokine-blocking antibodies on cytokine production was determined.

BT474 cells [5] = assay: tumorspheres in suspension cultures of BT474 cells; format: cell-based, human
Procedure: Single cells were plated on ultra-low attachment plates at a density of 1×10^5/ml and grown for 7 days in a mammocult medium (Stem Cell Technologies). After the treatment of primary spheres, they were dissociated into single-cell suspension and plated at a density of 5×10^3-1×10^4/ml for the subsequent passages. Secondary spheres were counted after 5-7 days in culture.

[6] = tested on: BT474-DsRed and BT474-PTEN- cells; assay: CD44+/CD24- flow cytometry of BT474 cells; format: cell-based, human
Procedure: (§5) To measure ALDH activity, the Aldefluor assay was carried out according to manufacturer's guidelines (StemCell Technologies, Inc., Durham, N.C.). Indicated cells were incubated with fluorophore-conjugated CD44 or CD24 antibodies alone or in combination on ice for 30 min, washed with Hank's balanced salt solution (HBSS), and resuspended in DAPI containing HBSS buffer for flow cytometry analyses.
To determine whether induction of the CSC phenotype was dependent on IL6 production, the effect of addition of IL6 receptor antibody on induction of the CSC phenotype was assessed. […] The ability of the anti-IL6R antibody to affect the CD44^+/CD24^− population in Sum159 cells, which lack the expression of the luminal CD24 marker, was examined.

[7] = tested on: parental BT474 or SKBR cells; assay: stimulation with recombinant IL6 or conditioned medium, mesenchymal phenotype and CD44; format: cell-based, human; settings: 5 days
Source text: (§6) The green fluorescent protein (GFP) label in the parental (PTEN wild-type) cells allowed separation by flow cytometry of cell populations following co-culture. Co-culture of parental BT474-GFP cells with BT474-PTEN^−LTT cells increased the percentage of CD44^+/CD24^− CSCs from 0.1% to 60% in parental cells (SEE FIG. 15A). Single GFP-expressing parental BT474 cells were sorted after 3 weeks of co-culture with BT474-PTEN^−LTT and generated multiple colonies. […] To examine the direct role of IL6 in these processes, parental BT474 or SKBR cells were stimulated with recombinant IL6 or conditioned medium (CM) from BT474-PTEN^−LTT cells in the presence or absence of anti-IL6R antibody.

parental BT474 cells = assay: co-culture of parental BT474 cells with BT474-PTEN-LTT cells; format: cell-based, human
Source text: as §6

[8] = tested on: trastuzumab-sensitive BT474-DsRed xenografts; assay: BT474-DsRed xenografts; format: in vivo, NOD/SCID mice; settings: 7-week period, compared to saline
[9] = tested on: breast CSCs (tumor-initiating cells); assay: reimplantation assay of residual tumor cells into secondary mice; format: in vivo; settings: residual tumors from treated mice
Source text: One of the hallmarks of CSC model is their ability to initiate tumors in secondary reimplantation assays (Clarke et al., 2006; herein incorporated by reference in its entirety).

BT474 cells [10] = assay: cell growth / viable cells of BT474 cells; format: cell-based, human; settings: parental BT474 cells
[11] = tested on: trastuzumab-resistant BT474-PTEN- xenografts; assay: BT474-PTEN- xenografts; format: in vivo, NOD/SCID mice; settings: for secondary tumors and distant metastasis after excision of primary tumors: excised after 8 weeks of treatment, luciferase imaging
Source text: Treatments for all early settings were 8 weeks long. […] Drug doses were as described in early setting.
To determine the effects of these treatments on the development of metastasis, we excised primary BT474-PTEN^− tumors after 8 weeks of treatment and assessed subsequent development of local and distant metastasis by luciferase imaging (FIG. 7D).

Sum159 cells = assay: CD44/CD24 flow cytometry of Sum159 cells; format: cell-based, human; settings: 5 days
Procedure: as §5
However, there was approximately a 2-fold increase in IL6 secretion when cells were treated for 3 weeks or longer (SEE FIG. 14A). […] The effects of trastuzumab-mediated IL6 production on CSCs were also tested. […] In contrast, downregulation of PTEN in these cells generated a population that contained approximately 10% CD44^+/CD24^− cells (FIG. 14B). […] To determine whether induction of the CSC phenotype was dependent on IL6 production, the effect of addition of IL6 receptor antibody on induction of the CSC phenotype was assessed. […] The ability of the anti-IL6R antibody to affect the CD44^+/CD24^− population in Sum159 cells, which lack the expression of the luminal CD24 marker, was examined. […] This discrepancy may be explained by the existence of different stem cell populations in different breast cancer subtypes.

Compound: CC(=O)O[C@@]12CO[C@@H]1C[C@H](O)[C@@]1(C)C(=O)[C@H](O)C3=C(C)[C@@H](OC(=O)[C@H](O)[C@@H](NC(=O)OC(C)(C)C)c4ccccc4)C[C@@](O)([C@@H](OC(=O)c4ccccc4)[C@H]21)C3(C)C [docetaxel]
- tumor growth / formation, BT474 ([1]; early (adjuvant) setting): suppressed tumor formation
- growth of established BT474 tumors [1]: reduced tumor growth
- growth of established BT474 tumors ([1]; listed as Docetaxel): highest efficacy to shrink tumors
- serum IL6 or IL8 levels [2]: no significant effect
- percent of Aldefluor-positive cells in tumors [2]: no significant effect; also recorded: no reduction
- body weight [2]: lost body weight
- tumor growth / formation, ZR75-1 ([3]; early (adjuvant) setting): suppressed tumor formation
- growth of established ZR75-1 tumors [3]: reduced tumor growth
- growth of established ZR75-1 tumors ([3]; listed as Docetaxel): highest efficacy to shrink tumors

Compound: denosumab
- HER2 induction by osteocyte co-cultures [4]: partially blocked
- HER2 induction by osteocyte co-cultures ([4]; listed as Denosumab): able to suppress

Compound: Stat3 Inhibitor VII
- secretion of all three cytokines (IL6, IL8, CCL5) (IL6, IL8, and CCL5): only partially inhibited
- reduced the levels of these cytokines (IL6, IL8, and CCL5): 50%

Compound: Tocilizumab [anti-IL6R antibody]
- number of tumorspheres induced by CM (BT474 cells [5]): reduced
- CD44+/CD24- CSC population [6]: reduced
- increase in CD44+/CD24- population induced by trastuzumab [6]: completely blocked
- tumor growth [2]: significantly inhibited tumor growth
- serum human IL6 and IL8 in control and docetaxel-treated mice higher than in treated mice [2]: 2 fold
- serum IL6 or IL8 levels [2]: significantly reduced
- percent of Aldefluor-positive cells in tumors [2]: significantly reduced; also recorded: substantial reduction
- IL6- or CM-induced mesenchymal phenotype and CD44 expression [7]: able to reverse
- induction of the CD44+/CD24- phenotype (parental BT474 cells; antibody added at the time of co-culture): inhibited
- CD44+/CD24- phenotype in parental cells (parental BT474 cells; late treatment): no effect; also recorded: resistant
- growth of BT474-DsRed xenografts [8]: little effect
- frequency of CSCs reduced [9]: more than 50%
- frequency of breast CSCs [9]: significantly lower
- IL6-increased production of all three cytokines (IL6, IL8, and CCL5; HER2+PTEN- cells with recombinant IL6): completely inhibited
- reduced the levels of these cytokines (IL6, IL8, and CCL5): more than 50%
- CM- or IL6-conferred resistance to trastuzumab (BT474 cells [10]): blocked; also recorded: reversed
- growth of BT474-PTEN- xenografts ([11]; early treatment): completely blocked tumor growth
- tumor growth as assessed by tumor weight at sacrifice ([11]; established tumors (late treatment)): completely blocked tumor growth
- secondary tumors and distant metastasis after excision of primary tumors [11]: no distant metastasis detected
- secondary tumors and distant metastasis after excision of primary tumors ([11]; listed as Anti-IL6R antibody): completely inhibited
- serum IL6 levels ([11]; human specific ELISA): lowest levels
- cell growth (Sum159 cells): substantial growth arrest
- generation of CD24+ cells (Sum159 cells): 11%

Compound: Cc1ccc(S(=O)(=O)/C=C/C#N)cc1 [Bay11-7082]
- secretion of all three cytokines (IL6, IL8, CCL5) (IL6, IL8, and CCL5): completely inhibited
- secretion of all three cytokines (IL6, IL8, CCL5) (IL6, IL8, and CCL5; listed as Bay11): almost completely blocked; also recorded: completely suppressed

Compound: CCCCCCCCCCCCCCCCCCOP(=O)([O-])OC1CC[N+](C)(C)CC1 [perifosine]
- tumor growth [2]: significantly inhibited tumor growth
- serum human IL6 and IL8 in control and docetaxel-treated mice higher than in treated mice [2]: 2 fold
- serum IL6 or IL8 levels [2]: significantly reduced
- percent of Aldefluor-positive cells in tumors [2]: significantly reduced; also recorded: substantial reduction
- body weight [2]: less body weight loss
- secretion of all three cytokines (IL6, IL8, CCL5) (IL6, IL8, and CCL5): only partially inhibited
- reduced the levels of these cytokines (IL6, IL8, and CCL5): 50%
